Experimental data taken from patent US9029542B2 (priority 2011, dated 2015).
Several values for one entry are separate records, joined by “and”; a condition that tells them apart may be missing. Equal values may be shown once. Read-outs that look alike come from different tables or passages of the source.

Key:
Sorghum = assay: whole plant or invertebrate; type: in vivo
Wheat = assay: whole plant or invertebrate; type: in vivo; settings: Triticum aestivum
cockspur grass = assay: whole plant or invertebrate; type: in vivo; settings: Echinochloa crus-galli
Cucumber = assay: whole plant or invertebrate; type: in vivo; settings: Cucumis sativus
Radish = assay: whole plant or invertebrate; type: in vivo; settings: Raphanus sativus
Capsella bursa-pastoris = assay: whole plant or invertebrate; type: in vivo; settings: 600 h, read-out: weed clearing activity, Capsella bursa-pastoris Postemergence
Amaranthus retroflexus = assay: whole plant or invertebrate; type: in vivo; settings: for pest or weed control at 150 g/ha: Amaranthus retroflexus, 600 h, read-out: weed clearing activity, Amaranthus retroflexus Postemergence
Abutilon theophrasti = assay: whole plant or invertebrate; type: in vivo; settings: for pest or weed control at 150 g/ha: Abutilon theophrasti, 600 h, read-out: Postemergence weed clearing activity, Abutilon theophrasti
rape = assay: animal or person; type: in vivo
Eclipta prostrata = assay: whole plant or invertebrate; type: in vivo; settings: for pest or weed control at 150 g/ha: Eclipta prostrata, 600 h, read-out: weed clearing activity, Eclipta prostrata Postemergence; for Weed clearing activity, Eclipta prostrata, Postemergence: in vivo
[1] = tested on: weeds of the expanded weed killing spectrum; settings: in vivo
[2] = read-out: inhibitory activity, Sorghum Root
[3] = read-out: inhibitory activity, Sorghum Stem
[4] = read-out: inhibitory activity, Wheat Root
[5] = read-out: inhibitory activity, Wheat Stem
[6] = read-out: inhibitory activity, Cockspur grass Root
[7] = read-out: inhibitory activity, Cockspur grass Stem
[8] = read-out: inhibitory activity, Cucumber Root
[9] = read-out: inhibitory activity, Cucumber Stem
[10] = read-out: inhibitory activity, Radish Root
[11] = read-out: inhibitory activity, Radish Stem
[12] = read-out: inhibitory activity, Rape Root
[13] = read-out: inhibitory activity, Rape Stem

Cc1cc(OCC(=O)OC(C)P2(=O)OCC(C)(C)CO2)ccc1Cl (stereo not drawn) [Compound 32, 2-(3-methyl-4-chlorophenoxyethylacyloxy)(methyl)methyl-5,5-dimethyl-1,3,2-dioxaphosphorinan-2-one phosphonate]
inhibition at 100 µg/mL (Sorghum; [2]): 0%
inhibition at 100 µg/mL (Sorghum; [3]): 0%
inhibition at 100 µg/mL (Wheat; [4]): 0%
inhibition at 100 µg/mL (Wheat; [5]): 0%
inhibition at 100 µg/mL (cockspur grass; [6]): 0%
inhibition at 100 µg/mL (cockspur grass; [7]): 0%
inhibition at 100 µg/mL (Cucumber; [8]): 60%
inhibition at 100 µg/mL (Cucumber; [9]): 90%
inhibition at 100 µg/mL (Radish; [10]): 90%
inhibition at 100 µg/mL (Radish; [11]): 60%
pest or weed control at 150 g/ha (Capsella bursa-pastoris): 70%
pest or weed control at 150 g/ha (Amaranthus retroflexus): 60%
pest or weed control at 150 g/ha (Abutilon theophrasti): 70%
inhibition at 100 µg/mL (rape; [12]): 90%
inhibition at 100 µg/mL (rape; [13]): 90%
pest or weed control at 150 g/ha (Eclipta prostrata): 60%

Cc1cc(Cl)ccc1OCC(=O)OC(C)P1(=O)OCC(C)(C)CO1 (stereo not drawn) [Compound 34, 2-(2-methyl-4-chlorophenoxyethylacyloxy)(methyl)methyl-5,5-dimethyl-1,3,2-dioxaphosphorinan-2-one phosphonate]
inhibition at 100 µg/mL (Sorghum; [2]): 100%
inhibition at 100 µg/mL (Sorghum; [3]): 100%
inhibition at 100 µg/mL (Wheat; [4]): 90%
inhibition at 100 µg/mL (Wheat; [5]): 60%
inhibition at 100 µg/mL (cockspur grass; [6]): 70%
inhibition at 100 µg/mL (cockspur grass; [7]): 80%
inhibition at 100 µg/mL (Cucumber; [8]): 100%
inhibition at 100 µg/mL (Cucumber; [9]): 100%
Activity of expanded weed killing spectrum, Alligator alternanthera [1]: 60% and 70%
Activity of expanded weed killing spectrum, Ammania [1]: 50% and 60%
Activity of expanded weed killing spectrum, Cabbage [1]: 70%
Activity of expanded weed killing spectrum, Capsella bursa-pastoris [1]: 85%
Activity of expanded weed killing spectrum, Cayenne pepper [1]: 70%
Activity of expanded weed killing spectrum, Cucumis sativus [1]: 60% and 70%
Activity of expanded weed killing spectrum, Monochoria [1]: 30% and 60%
Activity of expanded weed killing spectrum, Pakchoi [1]: 70%
Activity of expanded weed killing spectrum, Pigweed [1]: 70% and 75%
Activity of expanded weed killing spectrum, Rape [1]: 85%
Activity of expanded weed killing spectrum, Rumex acetosa [1]: 70% and 75%
Activity of expanded weed killing spectrum, Tomato [1]: 60% and 70%
Activity of expanded weed killing spectrum, Vicia cracca [1]: 70%
inhibition at 100 µg/mL (Radish; [10]): 100%
inhibition at 100 µg/mL (Radish; [11]): 100%
pest or weed control at 150 g/ha (Capsella bursa-pastoris): 90%
pest or weed control at 150 g/ha (Amaranthus retroflexus): 90%
pest or weed control at 150 g/ha (Abutilon theophrasti): 75%
inhibition at 100 µg/mL (rape; [12]): 100%
inhibition at 100 µg/mL (rape; [13]): 100%
pest or weed control at 150 g/ha (Eclipta prostrata): 80%
Weed clearing activity, Eclipta prostrata, Postemergence (Eclipta prostrata): 85%

CC(OC(=O)COc1ccc(F)cc1Cl)P1(=O)OCC(C)(C)CO1 (stereo not drawn) [Compound 37, 2-(2-chloro-4-fluorphenoxyethylacyloxy)(methyl)methyl-5,5-dimethyl-1,3,2-dioxaphosphorinan-2-one phosphonate]
inhibition at 100 µg/mL (Sorghum; [2]): 0%
inhibition at 100 µg/mL (Sorghum; [3]): 0%
inhibition at 100 µg/mL (Wheat; [4]): 60%
inhibition at 100 µg/mL (Wheat; [5]): 30%
inhibition at 100 µg/mL (cockspur grass; [6]): 0%
inhibition at 100 µg/mL (cockspur grass; [7]): 0%
inhibition at 100 µg/mL (Cucumber; [8]): 60%
inhibition at 100 µg/mL (Cucumber; [9]): 30%
Activity of expanded weed killing spectrum, Alligator alternanthera [1]: 60%
Activity of expanded weed killing spectrum, Ammania [1]: 60%
Activity of expanded weed killing spectrum, Cabbage [1]: 70%
Activity of expanded weed killing spectrum, Cayenne pepper [1]: 60% and 75%
Activity of expanded weed killing spectrum, Cucumis sativus [1]: 60% and 70%
Activity of expanded weed killing spectrum, Eclipta prostrata [1]: 60%
Activity of expanded weed killing spectrum, Monochoria [1]: 50%
Activity of expanded weed killing spectrum, Rape [1]: 70% and 75%
Activity of expanded weed killing spectrum, Rumex acetosa [1]: 70% and 75%
Activity of expanded weed killing spectrum, Vicia cracca [1]: 70%
inhibition at 100 µg/mL (Radish; [10]): 90%
inhibition at 100 µg/mL (Radish; [11]): 30%
pest or weed control at 150 g/ha (Capsella bursa-pastoris): 95%
pest or weed control at 150 g/ha (Amaranthus retroflexus): 90%
Weed clearing activity, Amaranthus retroflexus, Postemergence (Amaranthus retroflexus; in vivo): 60%
pest or weed control at 150 g/ha (Abutilon theophrasti): 90%
Weed clearing activity, Abutilon theophrasti, Postemergence (Abutilon theophrasti; in vivo): 70%
inhibition at 100 µg/mL (rape; [12]): 100%
inhibition at 100 µg/mL (rape; [13]): 100%
pest or weed control at 150 g/ha (Eclipta prostrata): 85%
Weed clearing activity, Eclipta prostrata, Postemergence (Eclipta prostrata): 60% and 85%

CC(Oc1ccc(Cl)cc1)C(=O)OC(C)P1(=O)OCC(C)(C)CO1 (stereo not drawn) [Compound 38, 2-(4-chlorophenoxyisopropylacyloxy)(methyl)methyl-5,5-dimethyl-1,3,2-dioxaphosphorinan-2-one phosphonate]
inhibition at 100 µg/mL (Sorghum; [2]): 0%
inhibition at 100 µg/mL (Sorghum; [3]): 0%
inhibition at 100 µg/mL (Wheat; [4]): 30%
inhibition at 100 µg/mL (Wheat; [5]): 30%
inhibition at 100 µg/mL (cockspur grass; [6]): 0%
inhibition at 100 µg/mL (cockspur grass; [7]): 0%
inhibition at 100 µg/mL (Cucumber; [8]): 60%
inhibition at 100 µg/mL (Cucumber; [9]): 30%
inhibition at 100 µg/mL (Radish; [10]): 70%
inhibition at 100 µg/mL (Radish; [11]): 30%
pest or weed control at 150 g/ha (Capsella bursa-pastoris): 70%
pest or weed control at 150 g/ha (Amaranthus retroflexus): 50%
pest or weed control at 150 g/ha (Abutilon theophrasti): 60%
inhibition at 100 µg/mL (rape; [12]): 100%
inhibition at 100 µg/mL (rape; [13]): 100%
pest or weed control at 150 g/ha (Eclipta prostrata): 60%

CC(Oc1ccc(Cl)cc1Cl)C(=O)OC(C)P1(=O)OCC(C)(C)CO1 (stereo not drawn) [Compound 39, 2-(2,4-dichlorophenoxyisopropylacyloxy)(methyl)methyl-5,5-dimethyl-1,3,2-dioxaphosphorinan-2-one phosphonate]
inhibition at 100 µg/mL (Sorghum; [2]): 70%
inhibition at 100 µg/mL (Sorghum; [3]): 60%
inhibition at 100 µg/mL (Wheat; [4]): 60%
inhibition at 100 µg/mL (Wheat; [5]): 60%
inhibition at 100 µg/mL (cockspur grass; [6]): 0%
inhibition at 100 µg/mL (cockspur grass; [7]): 0%
inhibition at 100 µg/mL (Cucumber; [8]): 80%
inhibition at 100 µg/mL (Cucumber; [9]): 30%
inhibition at 100 µg/mL (Radish; [10]): 100%
inhibition at 100 µg/mL (Radish; [11]): 30%
pest or weed control at 150 g/ha (Capsella bursa-pastoris): 80%
pest or weed control at 150 g/ha (Amaranthus retroflexus): 70%
pest or weed control at 150 g/ha (Abutilon theophrasti): 70%
inhibition at 100 µg/mL (rape; [12]): 100%
inhibition at 100 µg/mL (rape; [13]): 40%
pest or weed control at 150 g/ha (Eclipta prostrata): 60%

CC(Oc1ccc(F)cc1Cl)C(=O)OC(C)P1(=O)OCC(C)(C)CO1 (stereo not drawn) [Compound 41, 2-(2-chloro-4-fluorphenoxyisopropylacyloxy)(methyl)methyl-5,5-dimethyl-1,3,2-dioxaphosphorinan-2-one phosphonate]
inhibition at 100 µg/mL (Sorghum; [2]): 70%
inhibition at 100 µg/mL (Sorghum; [3]): 70%
inhibition at 100 µg/mL (Wheat; [4]): 70%
inhibition at 100 µg/mL (Wheat; [5]): 40%
inhibition at 100 µg/mL (cockspur grass; [6]): 0%
inhibition at 100 µg/mL (cockspur grass; [7]): 0%
inhibition at 100 µg/mL (Cucumber; [8]): 80%
inhibition at 100 µg/mL (Cucumber; [9]): 60%
inhibition at 100 µg/mL (Radish; [10]): 80%
inhibition at 100 µg/mL (Radish; [11]): 60%
pest or weed control at 150 g/ha (Capsella bursa-pastoris): 90%
pest or weed control at 150 g/ha (Amaranthus retroflexus): 60%
pest or weed control at 150 g/ha (Abutilon theophrasti): 70%
inhibition at 100 µg/mL (rape; [12]): 100%
inhibition at 100 µg/mL (rape; [13]): 90%
pest or weed control at 150 g/ha (Eclipta prostrata): 60%
Weed clearing activity, Eclipta prostrata, Postemergence (Eclipta prostrata): 60%

CC(Oc1ccc(F)cc1)C(=O)OC(C)P1(=O)OCC(C)(C)CO1 (stereo not drawn) [Compound 44, 2-(4-fluorphenoxyisopropylacyloxy)(methyl)methyl-5,5-dimethyl-1,3,2-dioxaphosphorinan-2-one phosphonate]
inhibition at 100 µg/mL (Sorghum; [2]): 0%
inhibition at 100 µg/mL (Sorghum; [3]): 0%
inhibition at 100 µg/mL (Wheat; [4]): 0%
inhibition at 100 µg/mL (Wheat; [5]): 0%
inhibition at 100 µg/mL (cockspur grass; [6]): 0%
inhibition at 100 µg/mL (cockspur grass; [7]): 0%
inhibition at 100 µg/mL (Cucumber; [8]): 30%
inhibition at 100 µg/mL (Cucumber; [9]): 30%
inhibition at 100 µg/mL (Radish; [10]): 80%
inhibition at 100 µg/mL (Radish; [11]): 30%
pest or weed control at 150 g/ha (Capsella bursa-pastoris): 70%
pest or weed control at 150 g/ha (Amaranthus retroflexus): 50%
pest or weed control at 150 g/ha (Abutilon theophrasti): 60%
inhibition at 100 µg/mL (rape; [12]): 100%
inhibition at 100 µg/mL (rape; [13]): 30%
pest or weed control at 150 g/ha (Eclipta prostrata): 60%

CC(OC(=O)COc1cccc(C(F)(F)F)c1)P1(=O)OCC(C)(C)CO1 (stereo not drawn) [Compound 45, 2-(3-trifluormethylphenoxyethylacyloxy)(methyl)methyl-5,5-dimethyl-1,3,2-dioxaphosphorinan-2-one phosphonate]
inhibition at 100 µg/mL (Sorghum; [2]): 70%
inhibition at 100 µg/mL (Sorghum; [3]): 60%
inhibition at 100 µg/mL (Wheat; [4]): 80%
inhibition at 100 µg/mL (Wheat; [5]): 60%
inhibition at 100 µg/mL (cockspur grass; [6]): 0%
inhibition at 100 µg/mL (cockspur grass; [7]): 0%
inhibition at 100 µg/mL (Cucumber; [8]): 98%
inhibition at 100 µg/mL (Cucumber; [9]): 50%
inhibition at 100 µg/mL (Radish; [10]): 90%
inhibition at 100 µg/mL (Radish; [11]): 60%
pest or weed control at 150 g/ha (Capsella bursa-pastoris): 85%
pest or weed control at 150 g/ha (Amaranthus retroflexus): 50%
pest or weed control at 150 g/ha (Abutilon theophrasti): 75%
inhibition at 100 µg/mL (rape; [12]): 85%
inhibition at 100 µg/mL (rape; [13]): 30%
pest or weed control at 150 g/ha (Eclipta prostrata): 50%
